From PubChem BioAssay AID720570 (Broad Institute, 2013) come the findings set out here.

Molecules are shown by their SMILES. Activity calls are given as the source filed them.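 How the source made its calls: active means cell-killing curve crosses a set limit at a concentration no more than twice the top valid dose; inconclusive means flat curve with a 30 to 70% loss, or a poor fit; inactive means signal rising instead of falling, and the rest.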

The first test is described as follows: cytotoxicity in EWS/Fli1-dependent TC71 cells – cell-based, luminescence, cherry-picked samples, retest, confirmation (AID 720570). Conditions: TC71 Ewing sarcoma viability, CellTiter-Glo ATP, 72 h; at 23.5 µM (top of the series).
`N#C[C@H]1N[C@H](CO)[C@H]1c1ccc(C#Cc2ccccc2F)cc1`: the activity change, negative = cytotoxicity was -18.8% (inactive).

Turning to `COC(=O)C[C@@H]1CC[C@H]2[C@H](COc3ccc(NC(=O)Nc4ccc(C#N)cc4)cc3C(=O)N2C)O1`, the activity change, negative = cytotoxicity is 4.96% (inactive).

Staying with this test, now noted: TC71 Ewing sarcoma viability, CellTiter-Glo ATP, 72 h; at 26 µM (top of the series).
With `CCCCNC(=O)C(c1ccc(OCC(=O)OC)c(C(=O)OC)c1)N(CCOC)C(=O)CCCCCN1C(=O)NC(c2ccc(-c3ccccc3)cc2)C(C(=O)OCc2ccccc2)=C1C` (stereo not given), the activity change, negative = cytotoxicity was 19.3% (inactive).

For `O=c1oc2cc(O)ccc2s1`, the activity change, negative = cytotoxicity is -26.8% (inactive).

With `CCC(C)Cn1c(O)cc2nn(-c3nc4ccccc4s3)c(=O)c-2c1C` (stereo not given), the activity change, negative = cytotoxicity was -4.93% (inactive).

`C/C(=N\N(c1ccccc1)c1ccccc1)c1ccco1`: the activity change, negative = cytotoxicity is 12.8% (inactive).

With `Nc1ccc(Oc2cccc(Oc3ccc(N)cc3)c2)cc1`, the activity change, negative = cytotoxicity is -7.72% (inactive).

Turning to `COc1ccccc1-c1cn(CC[C@H]2CC[C@@H](NC(=O)C3CCCC3)[C@@H](CO)O2)nn1`, the activity change, negative = cytotoxicity is 12.9% (inactive).

As for `C[C@@H]1CN([C@H](C)CO)C(=O)CCCn2nncc2CO[C@H]1CN(C)Cc1ccc(Oc2ccccc2)cc1`, the activity change, negative = cytotoxicity is -9.65% (inactive).

`C(=N\Nc1ccc2ccccc2n1)/c1ccc2c(c1)OCO2`: the activity change, negative = cytotoxicity is -9% (inactive).

For the compound `O=C(Nc1ccc(OC(=O)N2CCCCC2)cc1)N1CCOCC1`, the activity change, negative = cytotoxicity was 2.31% (inactive).

As to `O=C(O)c1cccc(N/N=C/c2ccc(OC(F)(F)F)cc2)c1`, the activity change, negative = cytotoxicity was 1.52% (inactive).

On to `COC(=O)C[C@@H]1CC[C@@H]2[C@H](COc3ccc(NC(=O)Nc4cccc(Cl)c4)cc3C(=O)N2C)O1`, for which the activity change, negative = cytotoxicity is -5.82% (inactive).

As to `CCc1ccc(/C=C2\SC(=S)N(CCCC(=O)N3CCN(C)CC3)C2=O)cc1`, the activity change, negative = cytotoxicity was -30.1% (inactive).

`c1cncc(-c2ccc([C@@H]3[C@H]4CNC[C@@H]3N4CC3CCOCC3)cc2)c1`: the activity change, negative = cytotoxicity was 5.7% (inactive).

Regarding `O=C(O)c1ccc(N/N=C/c2ccc(OC(=O)c3cccc(Cl)c3)cc2)cc1`, the activity change, negative = cytotoxicity was -1.51% (inactive).

For `COCCOC(=O)N1C(=O)[C@@]2(c3cc(C#CCC(C(=O)OC)C(=O)OC)ccc31)[C@H](c1ccccc1OCCO)N1[C@H](c3ccccc3)[C@H](c3ccccc3)OC(=O)[C@H]1[C@@H]2C(=O)N1CCN(c2ncccn2)CC1`, the activity change, negative = cytotoxicity is 16.1% (inactive).

Turning to `CN(C)c1ccc(N=Nc2ccccc2Br)cc1`, the activity change, negative = cytotoxicity was -15.6% (inactive).

In the case of `CCOc1cc(N2CCC(O)CC2)ccc1Nc1ncc2c(n1)N(C)c1ccccc1C(=O)N2C`, the activity change, negative = cytotoxicity is -28.3% (inactive).

Take `CN(C)c1ccc(/C=N/Nc2nc3ccccc3o2)cc1`: the activity change, negative = cytotoxicity is 1.68% (inactive).

`CN(C)C(=S)N=Nc1[nH]c2ccccc2c1O`: the activity change, negative = cytotoxicity is 16.9% (inactive).

Regarding `Cc1ccc(C(=O)CN2C(=O)c3ccccc3S2(=O)=O)cc1`, the activity change, negative = cytotoxicity is 1.85% (inactive).

With `CO[C@H]1CN(C)C(=O)c2cc(NC(=O)c3ccc(Oc4ccccc4)cc3)ccc2OC[C@H](C)NC[C@@H]1C`, the activity change, negative = cytotoxicity is -22.7% (inactive).

For the compound `CCc1ccc(/C=C2\SC(=S)N(CCCC(=O)NC3=NCCS3)C2=O)cc1`, the activity change, negative = cytotoxicity was 13.5% (inactive).

As for `CC(C)NC(=O)N(C)C[C@@H]1Oc2cc(C#Cc3ccc(F)cc3)ccc2S(=O)(=O)N([C@H](C)CO)C[C@H]1C`, the activity change, negative = cytotoxicity is 4.97% (inactive).

Consider `C=C1C(=O)C=C[C@]2(C)C[C@@H]3OC(=O)[C@](C)(O)[C@H]3C[C@@H]12`, for which the activity change, negative = cytotoxicity is -94.2% (inactive).

With `COC(=O)C[C@H]1CC[C@H]2[C@@H](COc3ccc(NC(=O)Nc4cccc(Cl)c4)cc3C(=O)N2C)O1`, the activity change, negative = cytotoxicity is -10.7% (inactive).

Consider `c1ccc(-c2ccc([C@H]3[C@H]4CNC[C@@H]3N4Cc3cc(-c4ccccc4)on3)cc2)cc1`, for which the activity change, negative = cytotoxicity is -7.89% (inactive).

In the case of `O=C1c2ccc3c4c(ccc(c24)C(=O)N1c1cccc(O)c1)C(=O)N(c1cccc(O)c1)C3=O`, the activity change, negative = cytotoxicity is -1.18% (inactive).

For the compound `CCc1ccc(/C=C2\SC(=S)N(CCCC(=O)Nc3cc(C)on3)C2=O)cc1`, the activity change, negative = cytotoxicity is 20.2% (inactive).

With `CCOC(=O)Cc1ccc(NC(=O)c2ccccc2Br)cc1`, the activity change, negative = cytotoxicity is 1.04% (inactive).

In the case of `CCc1ccc(N2C=C(C(=O)OC)C(c3ccc(OC)cc3)C(C#N)=C2N)cc1` (stereo not given), the activity change, negative = cytotoxicity was -7.67% (inactive).

As for `COc1ccc(Nc2ncnc3ccc(Br)cc23)c(OC)c1`, the activity change, negative = cytotoxicity is 6.89% (inactive).

On to `O=C(CCCN1C(=O)S/C(=C\c2ccccc2)C1=O)NNC(=O)c1ccccc1O`, for which the activity change, negative = cytotoxicity is 5.39% (inactive).

As for `O=C1C(=O)N(CCS(=O)(=O)c2ccccc2)c2ccccc21`, the activity change, negative = cytotoxicity was 2.35% (inactive).

`COc1ccc2oc(-c3ccccc3)cc(=O)c2c1`: the activity change, negative = cytotoxicity was 1.87% (inactive).

In the case of `CCOc1ccc(-c2noc(CCC(=O)O)n2)cc1`, the activity change, negative = cytotoxicity is 14.8% (inactive).

`Cc1ccsc1/C=N/Nc1ccc(C(=O)O)cc1`: the activity change, negative = cytotoxicity was -11.1% (inactive).

With `O=C(NC1CCCC1)C(c1ccccc1)n1c(CSCCOc2ccccc2)nc2ccccc21` (stereo not given), the activity change, negative = cytotoxicity is 3.49% (inactive).

With `Cc1csc(NC(=O)CCc2c(C)nc3cc(-c4ccc(Cl)cc4)nn3c2C)n1`, the activity change, negative = cytotoxicity was 10.8% (inactive).

In the case of `O=C(CCCN1C(=O)/C(=C/c2ccccc2Cl)SC1=S)NNC(=O)c1ccc(Cl)cc1`, the activity change, negative = cytotoxicity was -7.21% (inactive).

As for `CCOc1cc2[nH]c(=S)n(Cc3ccc(C(=O)NCCN(CC)CC)cc3)c(=O)c2cc1OCC`, the activity change, negative = cytotoxicity is 11.4% (inactive).

For `O=C1NC(=O)N(CCc2ccc(F)cc2)C(=O)/C1=C/C=C/c1ccccc1`, the activity change, negative = cytotoxicity was 11.3% (inactive).

As for `C(=C\c1ccc(C2[C@H]3CNC[C@@H]2N3Cc2ccccn2)cc1)/c1ccccc1` (stereo not given in full), the activity change, negative = cytotoxicity is -7.86% (inactive).

In the case of `CN(C(=O)COC(=O)c1cc(-c2ccccc2Cl)nc2ccccc12)C1CCS(=O)(=O)C1` (stereo not given), the activity change, negative = cytotoxicity was 5.31% (inactive).

For the compound `N/C(Cc1nc(-c2ccc(F)cc2)cs1)=N\O`, the activity change, negative = cytotoxicity was 11.6% (inactive).

On to `COc1ccc(N=C2C(=O)Nc3ccc(C)c(Br)c32)cc1`, for which the activity change, negative = cytotoxicity was 5.89% (inactive).

In the case of `COC(=O)C[C@H]1CC[C@@H](NC(=O)Nc2ccc(C(F)(F)F)cc2)[C@H](CO)O1`, the activity change, negative = cytotoxicity is -8.02% (inactive).

Consider `Cc1ccsc1C(=O)OCC(=O)c1cc(C)n(C)c1C`, for which the activity change, negative = cytotoxicity is 15.6% (inactive).

For the compound `COC(=O)C[C@H]1C=C[C@@H](NC(=O)Nc2ccc(C(F)(F)F)cc2)[C@H](CO)O1`, the activity change, negative = cytotoxicity is 9.61% (inactive).

As to `C[C@@H]1CN([C@H](C)CO)C(=O)c2cc(C#CCc3ccccc3)cnc2O[C@@H]1CN(C)Cc1cccc(F)c1`, the activity change, negative = cytotoxicity was -4.64% (inactive).

For the compound `COc1ccc(/C=C2\SC(=S)N(CCCC(=O)NC3CCCC3)C2=O)cc1OC`, the activity change, negative = cytotoxicity is -1.55% (inactive).

On to `CC(=O)c1ccc(N(C(=O)Cn2nnc3ccccc32)C(C(=O)NCc2ccccc2)c2ccccn2)cc1` (stereo not given), for which the activity change, negative = cytotoxicity was 9.64% (inactive).

In the case of `O=C(NC(=O)c1ccccc1)Nc1ccccc1`, the activity change, negative = cytotoxicity is 10.6% (inactive).

For the compound `Cc1c(Cl)cnc(NC(=O)COC(=O)c2ccc3ncsc3c2)c1Cl`, the activity change, negative = cytotoxicity is 5.39% (inactive).

On to `Cc1nc2cc(-c3ccc(Cl)cc3)nn2c(C)c1CCC(=O)NC(C)c1ccc2c(c1)OCCO2` (stereo not given), for which the activity change, negative = cytotoxicity is 14.2% (inactive).

As for `COc1ccc(C=NNc2nc3ccccc3s2)cc1`, the activity change, negative = cytotoxicity is -1.49% (inactive).

On to `Cc1cc(C(=O)CN2C(=O)c3ccccc3S2(=O)=O)c(C)n1C(C)C`, for which the activity change, negative = cytotoxicity is 3.94% (inactive).

In the case of `COc1ccccc1CNC(=O)C[C@@H]1CC[C@H]2[C@@H](COC[C@H](O)CN2C(=O)Nc2ccc(C(F)(F)F)cc2)O1`, the activity change, negative = cytotoxicity was -18.3% (inactive).

`COc1ccc(C(=O)Nc2cccc(C(=O)N/N=C/c3ccc(OC)cc3OC)c2)cc1`: the activity change, negative = cytotoxicity was 11.2% (inactive).

With `C/C=C/c1ccc(C2[C@@H]3CN(C(=O)Cc4ccccc4)C[C@H]2N3)cc1` (stereo not given in full), the activity change, negative = cytotoxicity was 6.18% (inactive).

Consider `C[C@@H]1CN([C@H](C)CO)C(=O)c2cc(NC(=O)CCCCCC(=O)Nc3ccccc3N)ccc2O[C@H]1CN(C)S(=O)(=O)c1ccc(Cl)cc1`, for which the activity change, negative = cytotoxicity was -12.6% (inactive).

Take `COCc1cc(C)nc2sc(C(=O)NCCO)c(-n3cccc3)c12`: the activity change, negative = cytotoxicity is 3.9% (inactive).

On to `C=CCn1c(O)c(N=Nc2ccccc2)c2ccccc21`, for which the activity change, negative = cytotoxicity was 10.5% (inactive).

Regarding `N#C[C@@H]1[C@H](c2ccc(C#Cc3cccc(F)c3)cc2)[C@@H](CO)N1C(=O)C1CCCC1`, the activity change, negative = cytotoxicity is -12.2% (inactive).

On to `COc1ccc(/C=C2\SC(=O)N(CCCC(=O)Nc3cc(Cl)ccc3C(=O)O)C2=O)cc1`, for which the activity change, negative = cytotoxicity is 5.69% (inactive).

With `COC(=O)C[C@H]1CC[C@H]2[C@H](COc3ccc(NC(=O)Nc4cccc(Cl)c4)cc3C(=O)N2C)O1`, the activity change, negative = cytotoxicity is -2.79% (inactive).

Take `COC(=O)c1c(C)[nH]c(/C=N/Nc2ccccc2)c1C`: the activity change, negative = cytotoxicity was 7.36% (inactive).

Consider `COc1ccc2oc(C(=O)NCCc3ccccc3)c(C)c2c1`, for which the activity change, negative = cytotoxicity was 3.92% (inactive).

`COC(=O)C[C@@H]1CC[C@@H]2[C@@H](COc3ccc(NC(=O)Nc4ccc(C#N)cc4)cc3C(=O)N2C)O1`: the activity change, negative = cytotoxicity is 15% (inactive).
